Read-outs that look alike come from different tables or passages of the source. Square brackets hold non-standard residues; d marks the D form. Ends that are not written are not given here. Phe(4-NO2) = N[C@@H](Cc1ccc([N+](=O)[O-])cc1)C(=O)O; dDab = NCC[C@@H](N)C(=O)O
Key:
[1] = tested on: outbreed male mice; assay: Analgesic activity in vivo, tail pinch method; design: species or system mouse; conditions: for Duration of analgesic effect at ED60-80 / ED50 nmol/animal (dose interval) / Relative analgesic activity morphine = 1: intracisternal administration
Method: Analgesic activity of enkephalin analogues was determined by a “tail pinch” method [Ueda H.; Amano H.; Shiomi H.; Takagi H. (1979). Eur. J. Pharmacol., 56, 265-268]. […] Ten mice were used in each experiment.
The studied substances were dissolved in sterile physiological solution and injected in J-shaped needles into the brain of conscious mice at a dose of 10 μl. Control animals received 10 μl of sterile physiological solution. Intravenous administration was into the tail vein. Analgesic activity was tested by pinching the mouse tail with an artery clip with 200 g pressure. The mice who bit the clip within one second after application of pinching were selected for assays. Analgesic activity was defined as latency on the biting response greater than 6 sec. The analgesic tests were performed 5, 15, 30, 60 and 90 min after administration and then every 30 min until the analgesic reaction was stopped. The analgesic activity of the peptides was expressed as a percentage of mice not showing the biting response.

[2] = tested on: CD-1 male mice; assay: Analgesic activity in vivo, hot plate method; design: species or system mouse; conditions: for analgesic effect in words: hot plate
Method: Male Swiss albino mice (CD1), weighing 20-22 g were used throughout the study. The animals were housed in solid bottom polycarbonate cages with access to standard laboratory diet (Laboratory Rodent Diet PK-120) and tap water ad libitum, under controlled environmental conditions (temperature:18-26° C., 8 a.m. to 8 p.m. light-dark cycle). Mice were tested only once.
The Hot-plate-meter represents the thermostatic controllable, electro-heated up surface limited by transparent walls (L: 25 cm, W: 25 cm, H: 35 cm). The forward panel of the device is equipped by buttons for the control of time and a temperature mode (Columbus Instruments).
The i.v. administration was performed via tail vein as a bolus injection. The doses for all animals were calculated on the basis of the last value of the individual body weight.
The animals accurately were placed on the preheated hot plate (55±0.5° C.) after i.v. injection of saline or peptides and the latencies to first paw licking and first jumping were measured. The other behavioral reactions were ignored. The animals were removed from a hot surface after the first jumping. A cut-off time of 180 s was used to avoid tissue damage.
To evaluate the hot-plate test responses, the control latencies (t0) and test latencies (t1) were determined after injection of saline or peptides, respectively. The percentage of the maximal possible effect (% MPE) was calculated as % MPE=(t1−t0)/(t2−t0)×100, where the cut-off time (t2) was 180 s.
The latency for the first jumping is considered as the most indicative in the hot-plate test. The area under the time-response curve was calculated by methods described elsewhere (Cicero and Meyer, 1973), to assess the magnitude of antinociception (FIG. 5, see appendix).
The median analgesic dose (ED50) also has been calculated for this parameter.

[3] = tested on: BALB mice under normobaric hypoxic hypoxia; assay: Antihypoxic action, lifetime of mice under normobaric hypoxic hypoxia; assay type: in vivo, mouse
Method: Antihypoxic action of the new enkephalin analogue (1) was determined by the measurement of lifetime duration in mice under the normobaric hypoxic hypoxia conditions.
The experiments were conducted on BALB-bread mice weighing 20 to 22 g. The normobaric hypoxic hypoxia conditions were modelled by placing the animals in hermetic camera, containing Ca(OH)2 to absorb the excess of carbon dioxide. The substances studied were injected intraperitoneally 1 min. before the placing of animals in the hermetic camera. The peptides were used at doses 1.0 mg/kg. […] Sodium oxybutyrate at highest therapeutic dose was used as comparative compound. The lifetime was estimated as the time when the animals stopped making breathing movements.

[4] = tested on: rats with ligature of coronary arteries; assay type: in vivo, rat; design: myocardial necrosis size: unit not given here
[5] = tested on: peripheral opiate receptors, mouse vas deferens (MVD); assay: MVD bioassay, suppression of electrically induced contraction
Method: Brit. J. Pharmacol., 35, 10-28]. The longitudinal muscle of ileum from guinea pig of any sex (weight 350-500 g) was carefully separated from underlying circular muscle and placed into a small bath with Krebs solution at 36° C.
The solution was constantly aerated. A constant load of 0.2 g was applied to the tissue. The tissue was stimulated by means of the ring platinum electrodes by single impulses of […] duration with 0.1 Hz frequency. […] Vas deferens of mice (weight 27 to 30 g) were placed into a bath with modified Krebs solution (not containing magnesium sulphate) at 31° C. The substances under study were dissolved in distilled water. The inhibiting activity of the compounds was determined by accumulating doses, adding increasing concentrations of the compounds without washing. The activity of the preparations was expressed as IC50 in nmol/l. The results obtained in 8-10 tests were statistically processed using Student's criterion.

[6] = target: T1, peripheral opiate receptors, guinea pig ileum (GPI, predominantly μ-type of opioid receptor) (Cavia porcellus, UniProt A0ACM8Q262); conditions: [Leu^5]-enkephalin = 100
T1 construct: other: guinea pig ileum longitudinal muscle, electrical stimulation; GPI Relative potency, %; other: GPI assay

[7] = tested on: peripheral opiate receptors, guinea pig ileum (GPI, predominantly μ-type of opioid receptor); conditions: ratio of relative potencies GPI to MVD
[8] = tested on: male Sprague-Dawley rats, left coronary artery occlusion (LCAO); assay: Cardiac ischemia rat model, left coronary artery occlusion 25 min / reperfusion 120 min, infarct size; assay type: in vivo
[9] = tested on: male Sprague-Dawley rats, left coronary artery occlusion (LCAO); assay: as above; assay type: in vivo; remark: listed apart in the source
Method: Male Sprague-Dawley (CD) rats weighing 280-380 g were used throughout this study. The rats were anesthetized by i.p. administration of urethane (1-1.5 g/kg). A tracheotomy was performed, and the trachea of the animal was intubated with a cannula connected to a rodent ventilator (model UGO BASILE 7025). Body temperature was maintained at 37° C. by use of a heating pad and monitored using rectally placed temperature probes connected to a digital thermometer. Body temperature is monitored and maintained at 37±1° C.)
The femoral artery was isolated and cannulated to measure blood pressure (BP) by a BP transducer (model PN:1891-E45, DTX™, Singapore) connected with computer. Mean arterial pressure and heart rate was calculated by special software. The right femoral vein was cannulated to allow administration of peptides or saline and methylene blue dye.
A left thoracotomy was performed to expose the heart at the fifth intercostal space. The pericardium was removed and a suture was placed under the left coronary artery in the groove between the pulmonary outflow track and left ventricle. With the tubing placed on the myocardial surface, the ligature could be tightened around the left coronary artery and clamped to provide a readily reversible occlusion of blood flow. Hemodynamics and body temperature were monitored during the procedure.
The protocol of experiments conducted in urethane-anesthetized open-chest rats subjected to regional myocardial ischemia-reperfusion is illustrated in FIG. 1 (see appendix).
All animals were subjected to 25 minutes of occlusion and 2 hours of reperfusion. Several doses (0.1 μg/kg-1 μg/kg) of the peptide (4) were given 5 minutes before occlusion. The coronary artery in all rats was occluded by pulling up on the suture and clamping it with plastic tube. At 25 minutes, the clump was released and coronary artery reperfusion was allowed. The surface of the left ventricle pinks up. After 120 min of reperfusion, the ligature was again tightened to occlude the left coronary artery, and […] methylene blue dye (0.4 ml of 10% w/v in saline) was injected. Once the dye had stained the heart, except in the area at risk, clearly demarcating the total area at risk (AAR), the heart was then quickly removed from the animal and washed out in a water, and the atria, valvular material and right ventricular wall were removed leaving just the left ventricle. The left ventricle was then sectioned transversely into 2-mm slices. The area defined as normal (dyed blue) was separated from the AAR (not dyed blue), and the slices are stained by incubation in 1% 2,3,5-triphenyltetrazolium chloride in pH 7.4 buffer for 15 min at 37° C. Infarcted areas appeared whitish after 2,3,5-triphenyltetrazolium chloride staining, whereas non-infarcted, or viable, areas appeared reddish in colour. Then the slices were immersed in 10% formalin for 5 minutes for fixing.
The slices were photographed. The areas of infarct (2,3,5-triphenyltetrazolium chloride negative) and risk zone (2,3,5-triphenyltetrazolium chloride stained) for each slice are traced and digitized using a computerized planimetry technique. The areas of each region were estimated using computerized planimetry (program “ImageTool”)
The infarct area was divided by the area at risk to determine the ratio of the infarct area/area at risk. (IS/AAR). Data were presented as infarct size (IS) as a percentage of the AAR (i.e., % IS/AAR) for statistical analysis of cardioprotective effects (decreased % IS/AAR). The statistical comparison for in vivo infarct reduction was made with vehicle controls.
A dose-response curve for the cardioprotective effects of peptide (4), compared with vehicle (n=12), was produced with i.v. peptide (4) doses of 0.01 (n=6), 0.1 (n=12), 1.0 (n=12) μg/kg, and 0.005 (n=12) mg/kg administered 5 min before LCAO in a 1 ml/kg dosing volume as a bolus. […]

[10] = i.v., dose 8 μmol/kg, jump latency time (FIG. 4)
[11] = intravenous administration, time point of 15 min
[12] = 0.1 μg/kg i.v. 5 min before occlusion
[13] = 5 μg/kg i.v. 5 min before occlusion

T1 sequence (A0ACM8Q262 1-400): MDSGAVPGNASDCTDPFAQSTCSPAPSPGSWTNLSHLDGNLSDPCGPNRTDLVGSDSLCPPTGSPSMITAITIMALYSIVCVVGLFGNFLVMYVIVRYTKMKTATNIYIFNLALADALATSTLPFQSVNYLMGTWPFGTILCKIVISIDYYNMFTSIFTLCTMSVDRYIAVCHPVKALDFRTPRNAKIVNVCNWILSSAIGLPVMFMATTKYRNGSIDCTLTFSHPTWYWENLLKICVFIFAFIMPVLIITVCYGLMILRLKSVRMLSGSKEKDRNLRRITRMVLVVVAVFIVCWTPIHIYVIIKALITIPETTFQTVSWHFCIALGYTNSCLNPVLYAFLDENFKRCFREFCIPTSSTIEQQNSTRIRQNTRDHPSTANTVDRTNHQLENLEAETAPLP

## CN1CC[C@]23c4c5ccc(O)c4O[C@H]2[C@@H](O)C=C[C@H]3[C@H]1C5 [Morphine, reference compound]
[1]; Mus musculus, intravenous administration, read-out: ED50 μmol/kg (dose interval)
  ED50: 18 µmol/kg
[2]; Mus musculus, 0.25 h, intravenous administration, time point of 15 min, read-out: ED50 (jump latency)
  ED50: 2.67 mg/kg

## O=C(O)CCCO [Sodium oxybutyrate, reference compound]
[3]; 1000.0 mg/kg (highest therapeutic dose) i.p. 1 min before hermetic chamber
  Duration of life: 15.5 ± 0.4 min
[3]; 1000.0 mg/kg i.p.
  lifetime increase in comparison with the control experiments: 24%

## CC(C)NCC(O)COc1cccc2ccccc12.Cl (stereo not drawn) [anaprilinum, reference compound]
[4]; comparison medicines at highest therapeutic doses, observation time 12 hours
  myocardial necrosis size: 53.80 ± 1.90

## O=[N+]([O-])OCC(CO[N+](=O)[O-])O[N+](=O)[O-] [nitroglycerine, reference compound]
[4]; rat, in vivo
  myocardial necrosis size: 54.04 ± 1.76
[4]; rat, in vivo, 0.05 mg/kg
  CPK: 101.1 ± 6.1 units/l
  HF-CPK: 19.8 ± 1.1 units/l
  Lactate: 1.80 ± 0.09 mmol/L

## Tyr-D-Orn(Ac-Asn)-Gly-Phe(p-NO2)—NH2 [Peptide 3]
[2]; [10]
  delay of analgesic effect: 15 min
[2]; i.v.
  analgesic effect in words: practically similar to that of morphine
[2]; [11]
  ED50 (jump latency): 2.04 mg/kg

## Tyr-D-Orn(Ac-Gly)-Gly-Phe(p-NO2)—NH2 [Peptide 5]
[2]; i.v.
  analgesic effect in words: practically similar to that of morphine
[2]; [11]
  ED50 (jump latency): 1.99 mg/kg

## Tyr-Gly-Gly-Phe-Leu [[Leu^5]-enkephalin, reference compound]
[5]; [Leu^5]-enkephalin = 100
  MVD Relative potency, %: 100%
[5]; mouse vas deferens, electrical stimulation
  IC50: 20 ± 1 nM
[1]
  Duration of analgesic effect at ED60-80: 15 min
  ED50 nmol/animal (dose interval): 174 (102-281) nmol/animal
  Relative analgesic activity morphine = 1: 0.007
[6]
  GPI Relative potency, %: 100%
[7]
  GPIrel/MVDrel: 1

## Tyr-Gly-Gly-Phe-Met [[Met^5]-enkephalin, reference compound]
[1]
  Duration of analgesic effect at ED60-80: 15 min
  ED50 nmol/animal (dose interval): 154 (90-261) nmol/animal
  Relative analgesic activity morphine = 1: 0.008

## Y[dDab](Ac)G[Phe(4-NO2)]-NH2 [Peptide 4]
[8]; 1.0 μg/kg i.v. immediately after removal of the LCAO (start of reperfusion)
  IS/AAR, level of ischemic damage: 32.5±2.4%
[8]; doses between 0.2 μg/kg and 3.2 μg/kg, 5 min before ischemia (dose-response curve)
  infarct size as % of Area at Risk (IS/AAR): smaller than 30%
[9]; 0.01 μg/kg i.v. 5 min before occlusion
  IS/AAR, % (infarct size as % of area at risk): 45.1±4.6%
[9]; [12]
  IS/AAR, % (infarct size as % of area at risk): 32.0 ± 3.5%
  Relative Reduction of Infarct size, % (Control = 0): 25.4%
[9]; 1 μg/kg i.v. 5 min before occlusion
  IS/AAR, % (infarct size as % of area at risk): 26.0 ±3.5%
[9]; [13]
  IS/AAR, % (infarct size as % of area at risk): 32.5 ± 2.5%
  Relative Reduction of Infarct size, % (Control = 0): 24.2%
[2]; [10]
  time of maximum analgesic effect: 30 min
[2]; i.v.
  analgesic effect in words: weaker than the effect of the other four peptides tested

## Y[dK](Ac)G[Phe(4-NO2)]-NH2 [Peptide 2]
[2]; [11]
  ED50 (jump latency): 1.7 mg/kg
[2]; intravenous, from ED50 at 15 min
  analgesic activity exceeding that of morphine: 1.5 times
